# Measured values as given in article PMC7583056, “Synthesis, Characterisation and In Vitro Anticancer Activity of Catalytically Active Indole-Based Half-Sandwich Complexes” (Molecules, 2020).
# Like-named read-outs stand apart in the source and are kept apart here.
# Assays:
# PNT2 cells = assay: Chemosensitivity assay (MTT) in PNT2 cells; assay type: cell-based; settings: 24 h exposure + 48 h recovery, MTT; mean ± SD
# From the text: (§1) The antiproliferative activity of the ind-py ligand and of complexes 1–4 against ovarian cancer A2780 (cisplatin sensitive) and A2780cisR (cisplatin resistant) cell lines was studied. The IC50 values obtained for all the complexes are shown in Table 2, together with values for cisplatin, which was used as a positive control (untreated cells for 100% viability as negative control). […] One of the major limitations of existing anticancer drugs is their poor selectivity towards cancer cells. Comparing the response of the cancer cell lines to the normal PNT2 cells provides a preliminary indication towards the selectivity of the compounds.
# (§2) In vitro chemosensitivity tests were performed against A2780, A2780cisR and PNT2 cells. Cells were routinely maintained as monolayer cultures in RPMI medium supplemented with 10% foetal calf serum, penicillin (100 I.U./mL) and streptomycin (100 μg/mL), sodium pyruvate (1 mM) and L-glutamine (2 mM). For chemosensitivity studies, cells were incubated in 96-well plates at a concentration of 7.5 × 10^3 cells per well and the plates were incubated for 24 h at 37 °C and a 5% CO2 humidified atmosphere prior to drug exposure.
# (§3) Complexes were dissolved in DMSO to provide stock solutions, which were further diluted with media to provide a range of final concentrations. Drug-media solutions were added to cells (the final concentration of DMSO was less than 1% (v/v) in all cases) and incubated for 24 h at 37 °C and 5% CO2 humidified atmosphere. The drug-media was removed from the wells and the cells were washed with PBS (100 μL, twice), and 100 μL of complete fresh media were added to each well. The plates were further incubated for 48 h at 37 °C in a 5% CO2 humidified atmosphere to allow for a period of recovery. 3-(4,5-dimethylthiazol-2-yl)-2,5-diphenyltetrazolium bromide (MTT) (20 μL, 2.5 mg/mL) was added to each well and incubated for 2 h at 37 °C and 5% CO2 humidified atmosphere. All solutions were then removed and 100 μL of DMSO was added to each well in order to dissolve the purple formazan crystals. A Thermo Scientific Multiskan EX microplate photometer was used to measure the absorbance in each well at 570 nm. Cell survival was determined as the absorbance of treated cells divided by the absorbance of controls and expressed as a percentage. The IC50 values were determined from plots of % survival against drug concentration. Each experiment was repeated in triplicates of triplicates and a mean value was obtained and stated as IC50 (μM) ± SD. Cisplatin was also used as a positive control.
# [1] = Stability in d6-DMSO by 1H-NMR; assay type: physicochemical; settings: 1.1 mM; for Release of the ind-py ligand (decoordination rate): over 24 h; for Release of the ind-py ligand (decoordination rate) / Time to reach equilibrium with second species (DMSO-adduct): 1H-NMR; for Stability in DMSO (in words): 24 h, after equilibrium with DMSO-adduct
# Method: (§4) Owing to the limited aqueous solubility of the complexes, all the reactivity experiments were performed using a mixture MeOD/D2O (1:1 v/v) as a solvent. The stability of complexes 1–4 in MeOD/D2O was studied via ^1H-NMR spectroscopy over a period of 24 h. […] The stability of complexes 1–4 in dimethylsulfoxide (DMSO;1.1 mM) was also studied by ^1H-NMR spectroscopy over a period of 24 h (Figure S1). […] The ligand ind-py is also stable in MeOD/D2O over 24 h (Figure S1E).
# Complexes 1–4 were also dissolved in d6-DMSO (1.1 mM) and ^1H-NMR spectra were recorded at t ≤ 10 min, 12 h and 24 h.
# A2780 cells = assay: Chemosensitivity assay (MTT) in A2780 cells; assay type: cell-based; settings: for Selectivity towards cancerous cells (A2780) versus normal cells (PNT2): from IC50 values A2780 vs PNT2
# From the text: as §1, §2, §3
# A2780cisR cells = assay: Chemosensitivity assay (MTT) in A2780cisR cells; assay type: cell-based; settings: for IC50: 24 h exposure + 48 h recovery, MTT, mean ± SD
# From the text: as §1, §2, §3
# Solubility as observed = assay type: physicochemical; settings: MeOD/D2O 1:1 v/v, 1.1 mM
# Method: as §4
# [2] = 24 h exposure + 48 h recovery, MTT, mean ± SD, read-out: IC50 A2780
# [3] = A2780 and A2780cisR, read-out: IC50 values (in the range of)
SMILES,IC50 (PNT2 cells),Release of the ind-py ligand (decoordination rate) [1],IC50 (A2780 cells; [2]),IC50 relative to cisplatin (fold higher / less active) (A2780 cells; A2780 and A2780cisR),IC50 (A2780 cells; [3]),Selectivity towards cancerous cells (A2780) versus normal cells (PNT2) (A2780 cells),IC50 (A2780cisR cells),Time to reach equilibrium with second species (DMSO-adduct) [1],Stability in DMSO (in words) [1],Activity against A2780cisR compared with A2780 (cross-resistance) (A2780cisR cells; comparison of IC50 values),Solubility in MeOD/D2O (in words) (Solubility as observed)
"Cc1c(C)c(C)[c-](C)c1C.[Cl-].[Rh+3].c1ccc(-c2cc3ccccc3[n-]2)nc1 [complex 1, [Cp*Rh(ind-py)Cl]]",34.7 ± 6.1 µM,25%,13 ± 1.7 µM,3 ×,~20 µM,3 ×,21.5 ± 3.5 µM,,,,
"Cc1ccc(C(C)C)cc1.[Cl-].[Ru+2].c1ccc(-c2cc3ccccc3[n-]2)nc1 [complex 3, [(p-cym)Ru(ind-py)Cl]]",54.3 ± 5.4 µM,,47.3 ± 4.7 µM,,,,62.8 ± 5.3 µM,less than 10 min,stable,,
"Cc1ccc(C(C)C)cc1.[Cl-].[Os+2].c1ccc(-c2cc3ccccc3[n-]2)nc1 [complex 4, [(p-cym)Os(ind-py)Cl]]",34.2 ± 2.2 µM,,18.8 ± 0.3 µM,3 ×,~20 µM,2 ×,21.5 ± 1.3 µM,less than 10 min,stable,no significant difference in activity,
"Cc1c(C)c(C)[c-](C)c1C.[Cl-].[Ir+3].c1ccc(-c2cc3ccccc3[n-]2)nc1 [complex 2, [Cp*Ir(ind-py)Cl]]",32.1 ± 3.9 µM,25%,22 ± 2.5 µM,3 ×,~20 µM,,32.7 ± 1.7 µM,,,,poor solubility
